The text below walks through data of PubChem BioAssay (NCI).

Holding throughout (experiment): growth of human tumour cells (NCI), 48 h
The test system of assay [1] is RPMI-8226 leukemia.
Assay [2] deals with SF-539 CNS.
In assay [3] the test system is NCI-H460 lung.
Assay [4] relates to UACC-257 melanoma.
The test system of assay [5] is HCC-2998 colon.
The subject of assay [6] is SK-OV-3 ovarian.
Assay [7] relates to NCI-H226 lung.
Assay [8] deals with 786-0 renal.
In assay [9] the test system is TK-10 renal.
Assay [10] deals with SF-295 CNS.

SMILES strings stand for the structures.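 Protocol summary: plate cells (96-well), add compound at 5 concentrations, incubate 48 h, interpolate endpoints linearly. The concentration for 50% growth inhibition is given as GI50. TGI is the concentration that stops growth completely.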 Some results are limits rather than exact numbers.

Consider `CC[C@@H](C)Nc1cc(C(=O)NC2CC3CCC(C2)N3c2ccc(C(=O)C3CC3)cn2)c(C)cc1C(N)=O` (stereo not given in full), for which the GI50 is 0.0538 µM in [1]; 0.0679 µM in assay [2]; 0.0299 µM in assay [3]; 0.04 µM in [4]; 0.0395 µM in assay [5]; under 0.0114 µM in assay [6]. Also, the GI50 in [7] was 0.0568 µM; in assay [8], 0.152 µM; in assay [9], 0.0387 µM; in assay [10], 0.0288 µM. The TGI in assay [1] is over 74.3 µM; in assay [2], over 100 µM; in [3] it was over 54.2 µM; in assay [4] it was 32 µM; in assay [5], 13.5 µM; in assay [6], over 100 µM. For the same compound, the TGI is 51.1 µM in [7], over 100 µM in [8], 89 µM in [9] and over 100 µM in assay [10].
Take `CC1CC(C)C2=NOS3=C2C1=NO3` (stereo not given): the TGI in [1], in assay [2], in assay [3], in assay [4], in assay [5] and in assay [6] was over 100 µM each time. The TGI in assay [7], in assay [8], in assay [9] and in assay [10] was over 100 µM in each case.
On to `CC(=O)NC(CCCCN(Cc1ccccc1)C(=O)N(CCCl)N=O)C(=O)NCc1ccccc1` (stereo not given), for which the TGI in assay [1] was 79 µM; in [2] it was 28.5 µM; in assay [3], 42.9 µM; in assay [4] it was over 44.6 µM; in assay [5], over 100 µM; in assay [6], over 76.3 µM. The TGI in [7] is over 96.7 µM; in assay [8], 24.9 µM; in assay [9] it was 73.9 µM; in assay [10], 43.4 µM.
Regarding `O=C1C(=O)N(c2cccc(C(F)(F)F)c2)C(=O)C(=O)C1c1nc2ccccc2s1`, the TGI in assay [1], in assay [2], in assay [3], in assay [4], in assay [5] and in assay [6] was over 100 µM each time. Moreover, the TGI in assay [7], in assay [8], in assay [9] and in assay [10] was over 100 µM throughout.
Turning to `CC(=O)O/N=C(Cl)/C(Cl)=N/OC(C)=O`, the TGI in [1], in [2], in [3], in assay [4], in assay [5] and in assay [6] was over 100 µM each time. Moreover, the TGI in assay [7], in assay [8], in [9] and in assay [10] was over 100 µM in each case.
As to `COc1cc2c(cc1OC)c1c(OC)c(OC)cc3c1c1c2sc(=S)n1CC3`, the TGI in assay [1], in assay [2], in assay [3], in assay [4], in assay [5] and in [6] was over 100 µM in each case. Also, the TGI in assay [7] is over 100 µM; in [8] it was 35.1 µM; in assay [9], over 100 µM; in assay [10], over 100 µM.
In the case of `O=C(Cn1c(C(=O)c2ccccc2)nc2ccccc21)c1ccc(F)cc1`, the GI50 is 3.47 µM in assay [1]; 16 µM in assay [2]; 12 µM in assay [3]; 74.3 µM in assay [4]; 6.41 µM in assay [5]; 32.7 µM in [6]. For the same compound, the GI50 in assay [7] is over 100 µM; in assay [8], 20.8 µM; in assay [9] it was 14.2 µM; in [10], 9.44 µM. Also, the TGI in [1] was over 52.5 µM; in assay [2], over 100 µM; in assay [3] it was over 76 µM; in assay [4] it was over 100 µM; in [5], over 100 µM; in [6] it was over 100 µM. For the same compound, the TGI in assay [7], in assay [8], in assay [9] and in assay [10] was over 100 µM each time.
In the case of `CCOc1c(C#N)c2c(N)ncnc2n1C1OC(CO)C(O)C1O` (stereo not given), the GI50 in assay [1] was 2.12 µM; in assay [2] it was 4.06 µM; in assay [3], 2.48 µM; in assay [4], 13.7 µM; in [5] it was 3.92 µM; in assay [6], 3.34 µM. Moreover, the GI50 in assay [7] is 6.93 µM; in [8] it was 3.76 µM; in [9], 3.05 µM; in assay [10], 4.63 µM. Besides, the TGI is 9 µM in assay [1]; 50 µM in assay [2]; over 100 µM in assay [3]; over 77.3 µM in [4]; 28.2 µM in assay [5]; 53.1 µM in [6]. Besides, the TGI in assay [7] was over 91.8 µM; in assay [8] it was over 24.9 µM; in assay [9] it was over 28 µM; in assay [10], over 100 µM.
Regarding `CN1CCN(Cc2ccc(NC(=O)c3cncc(C#Cc4cnn5ccccc45)c3)cc2C(F)(F)F)CC1`, the GI50 in assay [1] was 0.57 µM; in assay [2], 0.518 µM; in assay [3], 0.402 µM; in assay [4] it was 1.15 µM; in assay [5], 0.902 µM; in assay [6], 1.51 µM. Further, the GI50 was 0.592 µM in assay [7], 1.1 µM in [8], 1.61 µM in assay [9] and 0.916 µM in [10]. Also, the TGI in assay [1] was 1.82 µM; in assay [2] it was 1.25 µM; in assay [3], 1.98 µM; in [4], 3 µM; in [5], 3.07 µM; in assay [6], 4.61 µM. Besides, the TGI is 3.43 µM in [7], 2.26 µM in [8], 4.13 µM in [9] and 3.35 µM in assay [10].
As for `CC[C@]12C=CCN3CC[C@@]4(c5ccc(OC)cc5N(C)[C@H]4[C@@](O)(C(=O)OC)[C@@H]1OC(=O)CCC(=O)N[C@H](Cc1c[nH]c4ccccc14)C(=O)OC)[C@@H]32`, the GI50 in assay [1] was 3.63 µM; in assay [2], 2.63 µM; in assay [3], 14.8 µM; in assay [4] it was 6 µM; in assay [5], 6.01 µM; in assay [6], 15.5 µM. Further, the GI50 in assay [7] is 5.39 µM; in assay [8], 3.08 µM; in [9] it was 13.5 µM; in assay [10], 15.8 µM. For the same compound, the TGI stood at 44.7 µM in assay [1]; 7.06 µM in assay [2]; 32.8 µM in [3]; 23.1 µM in assay [4]; 37.9 µM in [5]; 33.7 µM in assay [6]. In addition, the TGI was 27.5 µM in [7], over 100 µM in assay [8], 29.4 µM in assay [9] and 39.5 µM in [10].
Take `CC(=N)N(C)O`: the TGI in assay [1], in [2], in assay [3], in assay [4], in assay [5] and in assay [6] was over 100 µM in each case. The TGI in assay [7], in assay [8], in assay [9] and in assay [10] was over 100 µM throughout.
On to `CCOC(=O)c1cc(-c2ccc(OC)c(OC)c2)[nH]c1N/N=C/c1c(Cl)cccc1Cl`, for which the GI50 is 3.31 µM in assay [1]; 1.44 µM in [2]; 1.35 µM in assay [3]; 13.2 µM in assay [4]; 0.668 µM in [5]; 1.85 µM in assay [6]. Also, the GI50 in assay [7] is 1.81 µM; in assay [8], 2.77 µM; in [9], 2.5 µM; in [10] it was 0.461 µM. Besides, the TGI was over 37.5 µM in assay [1]; 5.27 µM in assay [2]; over 35.9 µM in assay [3]; over 71.9 µM in assay [4]; 4.38 µM in assay [5]; 17.6 µM in assay [6]. For the same compound, the TGI in [7] worked out at 9.36 µM; in assay [8], 12.3 µM; in assay [9], 11.4 µM; in assay [10], 8.31 µM.
Take `NNC(=O)N/N=C1\C(=O)N(c2nccs2)C(=O)C(=O)C1c1nc2ccccc2s1` (stereo not given): the TGI in assay [1], in assay [2], in [3], in assay [4], in [5] and in assay [6] was over 100 µM each time. The TGI in assay [7], in assay [8], in assay [9] and in assay [10] was over 100 µM throughout.
As for `CC(=O)ON(C(C)=O)C1C(COC(c2ccccc2)(c2ccccc2)c2ccccc2)OC2OC3(CCCC3)OC21` (stereo not given), the TGI in assay [1] is 9.83 µM; in [2] it was over 100 µM; in [3], over 100 µM; in assay [4], over 100 µM; in [5], over 100 µM; in assay [6], over 100 µM. Also, the TGI was over 100 µM in assay [7], over 75.2 µM in assay [8], over 100 µM in [9] and over 100 µM in assay [10].
As for `CC1CCc2c(c(CC3CC(=O)NC(=O)C3)nn2-c2ccccc2)C1` (stereo not given), the TGI in [1], in assay [2], in [3], in assay [4], in assay [5] and in assay [6] was over 100 µM throughout. The TGI in assay [7], in [8], in assay [9] and in [10] was over 100 µM throughout.
